The supplement of paper PMC11061612

Tests used:
[1] = tested on: CL-11 (Colorectal Carcinoma); assay: Bliss excess, mean over the matrix (fraction); higher = more synergy
Outline: (§1)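 Cell lines grown in DMEM/F12 or RPMI with 10% FBS were plated in 1536-well plates and held 24 hours at 37°C, 5% CO2 before 72 hours of exposure to two-drug dose matrices, with DMSO typically at 0.2%. CellTiter-Glo 2.0 luminescence gave viability, which was converted to inhibition. Vehicle wells were set to 0 and blank wells to 1. Combination Emax is the second-highest inhibition in the matrix, and Bliss excess is the observed combination effect minus the expected EA + EB − EA·EB, where EA and EB are the single-agent effects.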

UACC-257 (Melanoma) = assay: as above
Outline: as §1

NCI-H226 (Mesothelioma) = assay: as above
Outline: as §1

[2] = tested on: P32-ISH (Burkitt's Lymphoma); assay: as above
Outline: as §1

[3] = tested on: SAT (Head and Neck Carcinoma); assay: as above
Outline: as §1

[4] = tested on: LS-1034 (Colorectal Carcinoma); assay: as above
Outline: as §1

ES6 (Ewing's Sarcoma) = assay: as above
Outline: as §1

[5] = tested on: SiHa (Cervical Carcinoma); assay: as above
Outline: as §1

[6] = tested on: SK-CO-1 (Colorectal Carcinoma); assay: as above
Outline: as §1

[7] = tested on: DBTRG-05MG (Glioblastoma); assay: as above
Outline: as §1

[8] = tested on: SNU-407 (Colorectal Carcinoma); assay: as above
Outline: as §1

[9] = tested on: MM1S (Plasma Cell Myeloma); assay: as above
Outline: as §1

[10] = tested on: RCC-JW (Kidney Carcinoma); assay: as above
Outline: as §1

[11] = tested on: IA-LM (Non-Small Cell Lung Carcinoma); assay: as above
Outline: as §1

[12] = tested on: ZR-75-30 (Breast Carcinoma); assay: as above
Outline: as §1

[13] = tested on: SNU-423 (Hepatocellular Carcinoma); assay: as above
Outline: as §1

[14] = tested on: SK-CO-1 (Colorectal Carcinoma); assay: combination Emax (second highest fraction inhibited in the dose matrix, 72 h); higher = more inhibition; extreme values may be limits of the assay
Outline: as §1

[15] = tested on: CPC-N (Small Cell Lung Carcinoma); assay: as above
Outline: as §1

[16] = tested on: SCC-4 (Oral Cavity Carcinoma); assay: as above
Outline: as §1
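Wherever Bliss excess, mean over the matrix is given: after 72 h of two-drug dosing.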

Structure (SMILES) | Bliss excess [1] | Bliss excess (UACC-257 (Melanoma)) | Bliss excess (NCI-H226 (Mesothelioma)) | Bliss excess [2] | Bliss excess [3] | Bliss excess [4] | Bliss excess (ES6 (Ewing's Sarcoma)) | Bliss excess [5] | Bliss excess [6] | Bliss excess [7] | Bliss excess [8] | Bliss excess [9] | Bliss excess [10] | Bliss excess [11] | Bliss excess [12] | Bliss excess [13] | combination Emax [14] | combination Emax [15] | combination Emax [16]
CN(C)CCCOc1ccc(-c2ccc3ncc4c(c3c2)n(C2CCOCC2)c(=O)n4C)cn1 [AZD0156] + O=C(c1cc(Cc2n[nH]c(=O)c3ccccc23)ccc1F)N1CCN(C(=O)C2CC2)CC1 [Olaparib] (first compound max 3 µM, partner max 3 µM) | 0.0647 | -0.0055 | -0.0594 | 0.211 | -0.0346 | 0.0657 | -0.005 | -0.0248 | -0.0173 | -0.0207 | -0.0122 | 0.0231 | 0.0299 | 0.0017 | -0.0203 | 0.0634 | 0.608 | 0.396 | 0.164
C=CCn1c(=O)c2cnc(Nc3ccc(N4CCN(C)CC4)cc3)nc2n1-c1cccc(C(C)(C)O)n1 [AZD1775] + C1CN(CCC1(C(=O)N[C@@H](CCO)C2=CC=C(C=C2)Cl)N)C3=NC=NC4=C3C=CN4 [Capivasertib] (first compound max 3 µM, partner max 3 µM) | -0.0499 | -0.0383 | -0.0662 | 0.0417 | -0.0616 | -0.0125 | – | -0.0212 | -0.0603 | 0.005 | -0.027 | 0.0171 | -0.0527 | -0.0348 | -0.0501 | -0.0333 | 0.691 | 0.948 | 0.505
COc1nnc2ccc(N3CCC(c4ccc(OCCN5CCN(C)C(=O)[C@H]5C)cc4)CC3)nn12 [AZD5153] + C=CCn1c(=O)c2cnc(Nc3ccc(N4CCN(C)CC4)cc3)nc2n1-c1cccc(C(C)(C)O)n1 [AZD1775] (first compound max 1 µM, partner max 1 µM) | -0.0376 | 0.0034 | -0.0349 | -0.0649 | -0.0305 | -0.0549 | -0.0553 | -0.0583 | -0.0741 | -0.0053 | -0.0278 | -0.0412 | -0.022 | -0.0554 | -0.042 | -0.0459 | 0.56 | 0.918 | 0.568
COc1nnc2ccc(N3CCC(c4ccc(OCCN5CCN(C)C(=O)[C@H]5C)cc4)CC3)nn12 [AZD5153] + CC1(C)CCC(CN2CCN(c3ccc(C(=O)NS(=O)(=O)c4ccc(NCC5CCOCC5)c([N+](=O)[O-])c4)c(Oc4cnc5[nH]ccc5c4)c3)CC2)=C(c2ccc(Cl)cc2)C1 [Venetoclax] (first compound max 1 µM, 7x7, partner max 1 µM) | -0.0302 | -0.0555 | -0.0192 | -0.0067 | -0.0525 | -0.011 | -0.0327 | -0.0986 | -0.0312 | -0.0832 | -0.0217 | -0.0394 | -0.0551 | -0.0639 | -0.0852 | -0.0223 | 0.321 | 0.539 | 0.389
COc1nnc2ccc(N3CCC(c4ccc(OCCN5CCN(C)C(=O)[C@H]5C)cc4)CC3)nn12 [AZD5153] + CCN(CCO)CCCOc1ccc2c(Nc3cc(CC(=O)Nc4cccc(F)c4)[nH]n3)ncnc2c1 [AZD2811] (first compound max 1 µM, 7x7, partner max 1 µM) | -0.0529 | 0.0076 | -0.0697 | -0.0959 | -0.0368 | -0.046 | -0.0476 | 0.0047 | -0.0746 | -0.0036 | -0.0476 | 0.106 | -0.0416 | -0.103 | -0.0008 | -0.0417 | 0.571 | 0.697 | 0.444
COc1nnc2ccc(N3CCC(c4ccc(OCCN5CCN(C)C(=O)[C@H]5C)cc4)CC3)nn12 [AZD5153] + CN(CC[C@H](CSC1=CC=CC=C1)NC2=C(C=C(C=C2)S(=O)(=O)NC(=O)C3=CC=C(C=C3)N4CCC(CC4)[C@H](C5=CC=CC=C5C6=CC=C(C=C6)Cl)O)S(=O)(=O)C(F)(F)F)CCO [AZD4320] (first compound max 1 µM, 7x7, partner max 1 µM) | 0.0136 | 0.0654 | – | -0.0595 | 0.0464 | – | – | 0.0846 | – | -0.0517 | 0.0156 | 0.0694 | – | – | – | – | – | – | –
COc1nnc2ccc(N3CCC(c4ccc(OCCN5CCN(C)C(=O)[C@H]5C)cc4)CC3)nn12 [AZD5153] + C[C@@H]1COCCN1C2=NC(=NC(=C2)C3(CC3)[S@](=N)(=O)C)C4=C5C=CNC5=NC=C4 [AZD6738] (first compound max 1 µM, 7x7, partner max 10 µM) | -0.0383 | 0.0581 | 0.0038 | -0.0039 | 0.031 | -0.0132 | 0.0339 | 0.101 | -0.0179 | 0.0213 | 0.003 | 0.0719 | 0.0051 | -0.0353 | 0.019 | -0.0023 | 0.714 | 0.967 | 0.732
COc1nnc2ccc(N3CCC(c4ccc(OCCN5CCN(C)C(=O)[C@H]5C)cc4)CC3)nn12 [AZD5153] + Cc1c2c(nn1C)CSCc1cc(n(C)n1)CSc1cc(c3ccccc3c1)OCCCc1c(C(=O)O)n(C)c3c-2c(Cl)ccc13 [AZD5991] (first compound max 1 µM, 7x7, partner max 1 µM) | -0.0499 | -0.019 | -0.0209 | -0.0108 | 0.0109 | -0.0569 | -0.0033 | -0.0237 | -0.0377 | -0.0296 | -0.0996 | 0.15 | -0.0078 | -0.0797 | 0.0034 | -0.0227 | 0.403 | 0.751 | 0.775
COc1nnc2ccc(N3CCC(c4ccc(OCCN5CCN(C)C(=O)[C@H]5C)cc4)CC3)nn12 [AZD5153] + Cn1cnc2c(F)c(Nc3ccc(Br)cc3Cl)c(C(=O)NOCCO)cc21 [Selumetinib] (first compound max 1 µM, 7x7, partner max 10 µM) | 0.0425 | 0.0284 | -0.045 | -0.0417 | 0.002 | 0.0264 | 0.053 | -0.0197 | -0.0134 | -0.014 | -0.0175 | 0.109 | 0.0214 | 0.0168 | -0.0133 | 0.0059 | 0.804 | 0.451 | 0.509
NC1(C(=O)N[C@@H](CCO)c2ccc(Cl)cc2)CCN(c2ncnc3[nH]ccc23)CC1 [Capivasertib] + CC(=O)c1c(C)c2cnc(Nc3ccc(N4CCNCC4)cn3)nc2n(C2CCCC2)c1=O [Palbociclib] (first compound max 10 µM, 7x7, partner max 10 µM) | -0.0222 | -0.0046 | -0.0792 | 0.0066 | -0.0203 | -0.0157 | -0.0055 | -0.022 | -0.0319 | -0.0072 | -0.0267 | -0.0128 | 0.0347 | -0.0789 | -0.0173 | -0.0019 | 0.419 | 0.382 | 0.271
NC1(C(=O)N[C@@H](CCO)c2ccc(Cl)cc2)CCN(c2ncnc3[nH]ccc23)CC1 [Capivasertib] + CC(C)n1c(=O)n(C)c2cnc3cc(F)c(-c4ccc(OCCCN5CCCCC5)nc4)cc3c21 [AZD1390] (first compound max 10 µM, 7x7, partner max 0.3 µM) | -0.0287 | -0.0358 | -0.0484 | 0.0131 | -0.0275 | -0.0447 | -0.0981 | -0.046 | -0.0173 | -0.0418 | -0.0261 | -0.0204 | -0.0366 | -0.0371 | -0.0471 | -0.0583 | 0.281 | 0.399 | 0.227
NC1(C(=O)N[C@@H](CCO)c2ccc(Cl)cc2)CCN(c2ncnc3[nH]ccc23)CC1 [Capivasertib] + CCN(CCO)CCCOc1ccc2c(Nc3cc(CC(=O)Nc4cccc(F)c4)[nH]n3)ncnc2c1 [AZD2811] (first compound max 10 µM, 7x7, partner max 1 µM) | -0.0034 | 0.0028 | -0.0459 | -0.021 | -0.0307 | -0.0634 | -0.0055 | 0.0067 | -0.0431 | 0.03 | -0.0833 | 0.0257 | -0.0014 | -0.0113 | -0.0115 | -0.0676 | 0.64 | 0.781 | 0.333
NC1(C(=O)N[C@@H](CCO)c2ccc(Cl)cc2)CCN(c2ncnc3[nH]ccc23)CC1 [Capivasertib] + COc1nnc2ccc(N3CCC(c4ccc(OCCN5CCN(C)C(=O)[C@H]5C)cc4)CC3)nn12 [AZD5153] (first compound max 10 µM, 7x7, partner max 1 µM) | -0.0206 | -0.0072 | -0.0165 | 0.119 | -0.0508 | 0.0201 | 0.0103 | 0.006 | -0.0209 | -0.0239 | -0.0269 | 0.0564 | 0.0516 | -0.141 | -0.034 | 0.0056 | 0.438 | 0.811 | 0.678
CC(=O)c1c(C)c2cnc(Nc3ccc(N4CCNCC4)cn3)nc2n(C2CCCC2)c1=O [Palbociclib] + CN(CC[C@H](CSC1=CC=CC=C1)NC2=C(C=C(C=C2)S(=O)(=O)NC(=O)C3=CC=C(C=C3)N4CCC(CC4)[C@H](C5=CC=CC=C5C6=CC=C(C=C6)Cl)O)S(=O)(=O)C(F)(F)F)CCO [AZD4320] (first compound max 10 µM, 7x7, partner max 1 µM) | 0.0021 | -0.0668 | – | 0.0075 | -0.0941 | – | – | -0.044 | – | -0.119 | -0.0556 | -0.0634 | – | – | – | – | – | – | –
C[C@@H](c1ccc2nccn2c1)n1nnc2ncc(-c3cnn(C)c3)nc21 [Savolitinib] + CN(CC[C@H](CSC1=CC=CC=C1)NC2=C(C=C(C=C2)S(=O)(=O)NC(=O)C3=CC=C(C=C3)N4CCC(CC4)[C@H](C5=CC=CC=C5C6=CC=C(C=C6)Cl)O)S(=O)(=O)C(F)(F)F)CCO [AZD4320] (first compound max 1 µM, 7x7, partner max 1 µM) | -0.0216 | -0.0529 | – | -0.022 | -0.0345 | – | – | -0.0396 | – | -0.0262 | -0.319 | -0.034 | – | – | – | – | – | – | –
